Reference: ChEMBL document CHEMBL1127175, “4-hydroxyphenoxymethylene bisphosphonic acid derivatives: potent, non-hydrolysable inhibitors of MYO-inositol monophosphatase” (Bioorg Med Chem Lett, 1993)

Target: T1, Inositol monophosphatase 1 (Bos taurus, UniProt P20456)
T1 sequence (P20456 whole entry): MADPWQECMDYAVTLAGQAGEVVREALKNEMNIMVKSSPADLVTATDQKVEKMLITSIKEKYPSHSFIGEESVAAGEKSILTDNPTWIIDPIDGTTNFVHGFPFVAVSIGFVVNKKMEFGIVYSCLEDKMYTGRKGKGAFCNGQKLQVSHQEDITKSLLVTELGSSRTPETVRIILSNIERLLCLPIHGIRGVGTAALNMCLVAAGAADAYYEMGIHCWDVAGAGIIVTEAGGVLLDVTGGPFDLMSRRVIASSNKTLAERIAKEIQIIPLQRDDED
Test: Tested for the inhibitory activity against recombinant bovine brain myo-inositol monophosphatase

| SMILES | IC50 |
| --- | --- |
| CC(Oc1ccc(O)cc1O)(P(=O)(O)O)P(=O)(O)O | 4.4 µM |
| O=P(O)(O)C(CCCCCCc1ccccc1)(O[C@@H]1CC[C@@H](O)C[C@@H]1O)P(=O)(O)O | 2.5 µM |
| O=P(O)(O)C(Oc1ccc(O)cc1)P(=O)(O)O | 27 µM |
| O=P(O)(O)C(Cc1ccccc1)(O[C@@H]1CC[C@@H](O)C[C@@H]1O)P(=O)(O)O | 19.2 µM |
| O=P(O)(O)C(Cc1ccccc1)(Oc1ccc(O)cc1)P(=O)(O)O | 0.5 µM |
| CC(O[C@@H]1CC[C@@H](O)C[C@@H]1O)(P(=O)(O)O)P(=O)(O)O | 4 µM |
| CC(Oc1ccc(O)cc1)(P(=O)(O)O)P(=O)(O)O [L-690330] | 0.33 µM |
| O=C(NCc1cccc(CC(Oc2ccc(O)cc2)(P(=O)(O)O)P(=O)(O)O)c1)c1ccc(Cl)c(Cl)c1 | 0.08 µM |
| O=P(O)(O)C(O)(Cc1ccc(Cl)c(Cl)c1)P(=O)(O)O | 23 µM |
| O=P(O)(O)C(Oc1ccc(O)cc1O)P(=O)(O)O | 40.8 µM |
